Assay [1] concerns the target 4-aminobutyrate aminotransferase, mitochondrial (Homo sapiens, UniProt P80404). In words: Inhibitory activity against GABAT.
The target in assay [2] is T1, Succinate-semialdehyde dehydrogenase, mitochondrial (Homo sapiens, UniProt P51649).
T1 sequence (P51649 whole entry): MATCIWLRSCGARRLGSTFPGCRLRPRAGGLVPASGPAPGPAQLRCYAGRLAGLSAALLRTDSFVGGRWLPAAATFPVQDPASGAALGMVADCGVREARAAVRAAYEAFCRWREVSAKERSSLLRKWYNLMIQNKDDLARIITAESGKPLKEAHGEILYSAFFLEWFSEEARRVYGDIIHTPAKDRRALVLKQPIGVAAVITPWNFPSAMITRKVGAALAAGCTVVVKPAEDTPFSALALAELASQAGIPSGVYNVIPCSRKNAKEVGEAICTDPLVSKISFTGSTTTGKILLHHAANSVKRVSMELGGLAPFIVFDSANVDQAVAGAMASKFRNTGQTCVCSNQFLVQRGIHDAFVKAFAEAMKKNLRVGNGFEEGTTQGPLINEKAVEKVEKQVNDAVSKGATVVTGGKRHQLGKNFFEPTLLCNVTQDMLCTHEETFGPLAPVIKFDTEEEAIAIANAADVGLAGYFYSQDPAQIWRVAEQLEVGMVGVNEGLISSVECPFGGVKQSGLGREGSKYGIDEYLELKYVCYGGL
In words: Inhibitory activity against SSADH.

The values below come from ChEMBL document CHEMBL1149409, “Inhibition of GABA shunt enzymes' activity by 4-hydroxybenzaldehyde derivatives” (Bioorg Med Chem Lett, 2006).

Bounds are passed on as bounds.

Chain of 4-aminobutyrate aminotransferase, mitochondrial (P80404 whole entry): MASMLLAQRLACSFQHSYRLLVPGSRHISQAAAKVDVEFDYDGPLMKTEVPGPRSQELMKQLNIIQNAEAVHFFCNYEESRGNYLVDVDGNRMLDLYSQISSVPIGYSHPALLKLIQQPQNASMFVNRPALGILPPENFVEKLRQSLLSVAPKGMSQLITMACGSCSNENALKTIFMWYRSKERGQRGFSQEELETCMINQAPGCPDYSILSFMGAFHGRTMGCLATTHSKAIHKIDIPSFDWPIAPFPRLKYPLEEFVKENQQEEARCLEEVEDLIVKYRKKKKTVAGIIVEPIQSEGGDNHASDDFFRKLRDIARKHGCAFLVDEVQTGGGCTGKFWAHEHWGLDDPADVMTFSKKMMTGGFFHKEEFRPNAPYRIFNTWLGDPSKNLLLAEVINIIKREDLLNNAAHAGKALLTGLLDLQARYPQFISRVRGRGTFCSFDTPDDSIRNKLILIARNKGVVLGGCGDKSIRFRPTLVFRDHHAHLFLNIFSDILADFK

As for `COc1cc(/C=N/O)ccc1O`, the 50% inhibitory concentration (IC50) in assay [1] and in assay [2] was greater than 1000 µM throughout.

Turning to `NCc1ccc(O)cc1`, the half-inhibitory concentration (IC50) was 15.4 µM in assay [1] and greater than 1000 µM in assay [2].

For `O/N=C/c1ccc(O)cc1`, the IC50 in assay [1] and in assay [2] was greater than 1000 µM throughout.

On to `O=Cc1ccc(O)c([N+](=O)[O-])c1`, for which the IC50 in assay [1] turned out to be 15.5 µM; in assay [2] it was 33.1 µM.

Turning to `C=CC(=O)c1ccc(O)cc1`, the IC50 in assay [1] came out at 5.48 µM; in assay [2], 0.35 µM.

With `CC(=O)c1ccc(O)cc1` [4-HYDROXYACETOPHENONE], the IC50 worked out at 188 µM in assay [1] and 166 µM in assay [2].

In the case of `O=Cc1ccc(O)cc1` [4-HYDROXYBENZALDEHYDE], the results for the IC50 in assay [1] and in assay [2] were 16.5 µM and 24.7 µM, respectively.

On to `Nc1ccc(C(=O)O)cc1` [AMINOBENZOIC ACID], for which the half-inhibitory concentration (IC50) in assay [1] and in assay [2] was greater than 1000 µM throughout.

`COc1ccc(C=O)cc1` [ANISALDEHYDE]: the half-maximal inhibitory concentration (IC50) in assay [1] and in assay [2] was greater than 1000 µM each time.

For `OCc1ccc(O[C@@H]2O[C@H](CO)[C@@H](O)[C@H](O)[C@H]2O)cc1` [GASTRODIN], the IC50 in assay [1] and in assay [2] was greater than 1000 µM throughout.

In the case of `O=Cc1ccc(O[C@@H]2O[C@H](CO)[C@@H](O)[C@@H](O)[C@H]2O)cc1` [HELICIDE], the 50% inhibitory concentration (IC50) in assay [1] and in assay [2] was greater than 1000 µM each time.

For the compound `O=C(O)c1ccc(O)cc1` [PARABEN], the IC50 in assay [1] and in assay [2] was greater than 1000 µM throughout.

For `OCc1ccc(O)cc1` [PARAHYDROXYBENZYL ALCOHOL], the IC50 in assay [1] and in assay [2] was greater than 1000 µM in each case.

Regarding `CCC(=O)c1ccc(O)cc1` [PAROXYPROPIONE], the half-maximal inhibitory concentration (IC50) in assay [1] came to 176 µM; in assay [2], 293 µM.

In the case of `COc1cc(C=O)ccc1O` [VANILLIN], the IC50 in assay [1] came to 17.1 µM; in assay [2] it was 15.6 µM.
